How the values were obtained:
Parameters in all cases: species or system mice
Conditions in all cases: mouse, in vivo
peripheral mast cells = test system: peripheral mast cells
anti-PA IgG = test system: anti-PA IgG
CD4 T-cells = test system: CD4 T-cells

TNF-α
lymph node hypertrophy after direct injection into footpads (peripheral mast cells): marked lymph node hypertrophy | time of maximal lymph node growth (peripheral mast cells): 48 h

cholera toxin [CT]
adjuvant activity, serum anti-PA IgG by ELISA on day 175 (anti-PA IgG): significant adjuvant activity over PA alone | adjuvant activity, serum anti-PA IgG geometric mean titers (anti-PA IgG): significant adjuvant activity at all doses tested

pertussis toxin
T-cell recruitment to draining lymph nodes after T-cell pretreatment (CD4 T-cells): inhibited T-cell recruitment to draining lymph nodes
